Reference: the Kinase Knowledgebase extract (Sharma et al. 2016)

What was measured:
EGFR [1] = molecular target: EGFR (UniProt P00533)
EGFR [2] = molecular target: EGFR (UniProt P00533); remark: listed apart in the source

Chain of EGFR (P00533 whole entry, looked up): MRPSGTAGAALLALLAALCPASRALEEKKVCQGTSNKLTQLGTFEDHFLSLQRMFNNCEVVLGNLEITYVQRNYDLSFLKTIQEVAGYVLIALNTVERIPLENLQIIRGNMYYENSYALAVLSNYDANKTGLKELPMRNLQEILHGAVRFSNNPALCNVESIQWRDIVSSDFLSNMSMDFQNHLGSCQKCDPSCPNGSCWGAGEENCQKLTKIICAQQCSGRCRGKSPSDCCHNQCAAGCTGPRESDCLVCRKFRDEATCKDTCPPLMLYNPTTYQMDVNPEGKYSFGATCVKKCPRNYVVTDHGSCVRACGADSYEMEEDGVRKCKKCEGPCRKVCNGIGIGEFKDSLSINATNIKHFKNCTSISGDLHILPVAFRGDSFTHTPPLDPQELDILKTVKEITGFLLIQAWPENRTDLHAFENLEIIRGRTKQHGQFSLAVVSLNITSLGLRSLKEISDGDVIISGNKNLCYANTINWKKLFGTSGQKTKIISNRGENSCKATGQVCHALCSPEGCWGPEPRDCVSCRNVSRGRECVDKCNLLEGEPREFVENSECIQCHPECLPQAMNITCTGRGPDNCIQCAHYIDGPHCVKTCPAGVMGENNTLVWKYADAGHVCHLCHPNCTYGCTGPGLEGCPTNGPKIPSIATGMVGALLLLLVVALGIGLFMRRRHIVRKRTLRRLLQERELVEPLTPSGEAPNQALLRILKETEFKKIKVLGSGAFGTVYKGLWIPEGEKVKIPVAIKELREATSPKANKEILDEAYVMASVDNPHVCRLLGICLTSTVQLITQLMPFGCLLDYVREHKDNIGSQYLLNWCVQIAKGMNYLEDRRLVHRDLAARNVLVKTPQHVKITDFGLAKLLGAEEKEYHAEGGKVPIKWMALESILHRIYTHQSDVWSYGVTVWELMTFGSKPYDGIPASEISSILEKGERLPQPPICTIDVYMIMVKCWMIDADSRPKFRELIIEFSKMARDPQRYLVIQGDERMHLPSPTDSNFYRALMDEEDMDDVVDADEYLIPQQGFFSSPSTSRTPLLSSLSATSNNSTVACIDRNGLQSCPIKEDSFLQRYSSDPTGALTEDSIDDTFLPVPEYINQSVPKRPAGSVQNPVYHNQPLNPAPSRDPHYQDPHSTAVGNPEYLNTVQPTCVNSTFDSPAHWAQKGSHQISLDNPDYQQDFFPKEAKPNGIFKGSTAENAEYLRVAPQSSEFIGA

Question: For `N#C/C(=C\c1ccc([N+](=O)[O-])cc1)C(=O)O`, which Ki (EGFR [1]) is on record?
Answer: 1300 µM

Question: For `N#CC(C#N)=C(O)c1cc(O)c(O)c(O)c1`, which IC50 (EGFR [2]) is on record?
Answer: 35 µM

Question: Which IC50 (EGFR [2]) does the source give for `N#CC(C#N)=C(N)/C(C#N)=C/c1ccc(O)c(O)c1` here?
Answer: 1.8 µM

Question: For `O=C(O)/C=C/c1cc(O)ccc1O`, which IC50 (EGFR [1]) is on record?
Answer: 4.4 µM

Question: For `COc1cc(C=C(C#N)C#N)cc(O)c1O`, which IC50 (EGFR [2]) is on record?
Answer: 20 µM

Question: With `N#C/C(=C\c1ccc(O)c(O)c1)C(N)=O` as the molecule, how does the IC50 (EGFR [2]) read?
Answer: 4 µM

Question: Which results are given for `N#CC(C#N)=Cc1cc(O)cc(O)c1`?
Answer: Ki (EGFR [1]): 10 µM; IC50 (EGFR [2]): 160 µM

Question: Which IC50 (EGFR [2]) does the source give for `N#C/C(=C\c1ccc(O)c(O)c1)C(=O)O` here?
Answer: 400 µM

Question: Which Ki (EGFR [1]) does the source give for `N#CC(C#N)=Cc1cc(O)c(O)c(O)c1` here?
Answer: 1 µM

Question: What about the IC50 (EGFR [2]) of the same molecule?
Answer: 15 µM
